Consider eight molecules from US20250011368A1, “DLL3 TARGETING PEPTIDES AND CONSTRUCTS THEREOF” (MARIANA ONCOLOGY INC., priority 2023, published 2025).

Numbered stars: 1 amine (or outer) side, 2 acyl side, 3 side chain; on linkers, the order of the positions; unused ones are H or OH. Bridge positions count the residues as written; N and C are the ends. Square brackets hold non-standard residues; d marks the D form. Peptide text beside a SMILES is read from it. * marks the point of attachment. ξ: configuration not given here. Ala(piperidin-4-yl) = O=C([C@H](CC1CCN([*:3])CC1)N[*:1])[*:2]; DOTA = O=C(O)CN1CCN(CC(=O)O)CCN(CC(=O)*)CCN(CC(=O)O)CC1; Phe(4-CF3) = N[C@@H](Cc1ccc(C(F)(F)F)cc1)C(=O)O; Trp(5-F) = N[C@@H](Cc1c[nH]c2ccc(F)cc12)C(=O)O; Trp(7-Me) = Cc1cccc2c(C[C@H](N)C(=O)O)c[nH]c12; Phe(2-CF3) = N[C@@H](Cc1ccccc1C(F)(F)F)C(=O)O; Trp(7-aza) = N[C@@H](Cc1c[nH]c2ncccc12)C(=O)O; Pro(trans-4-F) = O=C(O)[C@@H]1C[C@@H](F)CN1; Phe(4-F) = N[C@@H](Cc1ccc(F)cc1)C(=O)O; 2Nal = N[C@@H](Cc1ccc2ccccc2c1)C(=O)O; Gly(4-THP) = N[C@H](C(=O)O)C1CCOCC1; Chg = N[C@H](C(=O)O)C1CCCCC1; Tle = CC(C)(C)[C@H](N)C(=O)O; ξαMeD = CC(N)(CC(=O)O)C(=O)O; Lauroyl = CCCCCCCCCCCC(=O)*; Octanoyl = CCCCCCCC(=O)*; Dab = NCC[C@H](N)C(=O)O

The target in this assay is T1, human DLL3 (Homo sapiens, UniProt Q9NYJ7).
T1 sequence (Q9NYJ7 27-618): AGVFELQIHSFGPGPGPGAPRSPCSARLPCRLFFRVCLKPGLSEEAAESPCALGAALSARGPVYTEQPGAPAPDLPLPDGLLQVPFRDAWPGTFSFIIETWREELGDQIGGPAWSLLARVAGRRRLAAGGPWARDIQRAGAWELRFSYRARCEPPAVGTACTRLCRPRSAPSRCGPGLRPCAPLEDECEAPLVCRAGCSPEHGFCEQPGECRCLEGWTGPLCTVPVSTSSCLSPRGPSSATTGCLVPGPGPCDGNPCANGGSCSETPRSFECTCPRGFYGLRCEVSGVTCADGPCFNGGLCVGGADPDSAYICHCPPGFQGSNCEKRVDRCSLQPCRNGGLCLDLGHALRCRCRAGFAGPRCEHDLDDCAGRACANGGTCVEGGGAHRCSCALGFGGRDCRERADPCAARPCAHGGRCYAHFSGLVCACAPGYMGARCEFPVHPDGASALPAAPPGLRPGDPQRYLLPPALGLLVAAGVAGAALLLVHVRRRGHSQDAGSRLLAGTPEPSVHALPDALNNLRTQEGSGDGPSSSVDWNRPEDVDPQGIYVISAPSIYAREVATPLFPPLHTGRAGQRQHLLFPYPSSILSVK
Nature of the assay: Affinity determination by Surface Plasmon Resonance (SPR). The assay is classed as binding. The following applies: 25° C., biotinylated human DLL3 immobilized on streptavidin sensor chip, 1:1 binding model; read-out: SPR KD. The procedure, abridged:
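Kinetic and affinity constants were derived by fitting sensorgrams to a 1:1 binding model. Graded compound concentrations flowed at 100 μL/minute in 20 mM phosphate running buffer with 2% DMSO over streptavidin-immobilized biotinylated human DLL3, reference-subtracted.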
`CC(=O)N[C@@H](Cc1c[nH]c2ccccc12)C(=O)N[C@H](C(=O)N[C@H](C(=O)N[C@H]1CSSC[C@@H](C(=O)N[C@@H](Cc2c[nH]c3ccccc23)C(=O)N2CCC[C@H]2C(=O)N[C@H](CCCCNC(=O)CN2CCN(CC(=O)O)CCN(CC(=O)O)CCN(CC(=O)O)CC2)C(N)=O)NC(=O)[C@H](CC(=O)O)NC(=O)[C@H](Cc2cnc[nH]2)NC(=O)[C@H](Cc2ccc3ccccc3c2)NC(=O)[C@H](CC(N)=O)NC(=O)[C@H](CC2CCNCC2)NC1=O)C(C)(C)C)[C@@H](C)O` [compound 281, Ac-W-T-(Tbg)-C(3)-[3-(4-piperidinyl)-Ala]-N-(2Nal)-H-D-C(3)-W-P-[D-Lys(DOTA)]-NH2] (Ac-WT[Tle]C[Ala(piperidin-4-yl)]N[2Nal]HDCWP[dK](DOTA)-NH2; disulfide 4-10): the Kd (usually the equilibrium constant for the complex coming apart) was less than 1 nM.
As to `CC(=O)N[C@@H](Cc1c[nH]c2ccc(F)cc12)C(=O)N[C@H](C(=O)N[C@H](C(=O)N[C@H]1CSSC[C@@H](C(=O)N[C@@H](Cc2c[nH]c3ncccc23)C(=O)N2C[C@H](F)C[C@H]2C(=O)N[C@H](CCCCNC(=O)CN2CCN(CC(=O)O)CCN(CC(=O)O)CCN(CC(=O)O)CC2)C(N)=O)NC(=O)[C@H](CC(=O)O)NC(=O)[C@H](Cc2cnc[nH]2)NC(=O)[C@H](Cc2ccc(C(F)(F)F)cc2)NC(=O)[C@H](CC(N)=O)NC(=O)[C@H](CC(N)=O)NC1=O)C1CCOCC1)[C@@H](C)O` [compound 147, Ac-(5Fluoro-W)-T-(THPG)-C(3)-N-N-(4CF3-F)-H-D-C(3)-(7Aza-W)-(trans4Fluoro-P)-[D-Lys(DOTA)]-NH2] (Ac-[Trp(5-F)]T[Gly(4-THP)]CNN[Phe(4-CF3)]HDC[Trp(7-aza)][Pro(trans-4-F)][dK](DOTA)-NH2; disulfide 4-10), the Kd fell in the range of 1 to 10 nM.
Next, `CC(=O)N[C@@H](Cc1c[nH]c2ccc(F)cc12)C(=O)N[C@H](C(=O)N[C@H](C(=O)N[C@H]1CSSC[C@@H](C(=O)N[C@@H](Cc2c[nH]c3ncccc23)C(=O)N2C[C@H](F)C[C@H]2C(=O)N[C@H](CCCCNC(=O)CN2CCN(CC(=O)O)CCN(CC(=O)O)CCN(CC(=O)O)CC2)C(N)=O)NC(=O)[C@H](CC(=O)O)NC(=O)[C@H](Cc2cnc[nH]2)NC(=O)[C@H](Cc2ccc(F)cc2)NC(=O)[C@H](CC(N)=O)NC(=O)[C@H](CC(N)=O)NC1=O)C(C)(C)C)[C@@H](C)O` [compound 129, Ac-(5Fluoro-W)-T-(Tbg)-C(3)-N-N-(4Fluoro-F)-H-D-C(3)-(7Aza-W)-(trans4Fluoro-P)-[D-Lys(DOTA)]-NH2] (Ac-[Trp(5-F)]T[Tle]CNN[Phe(4-F)]HDC[Trp(7-aza)][Pro(trans-4-F)][dK](DOTA)-NH2; disulfide 4-10): 10 to 100 nM; `CC[C@H](C)[C@H](NC(=O)[C@@H](NC(=O)[C@H](Cc1c[nH]c2ccccc12)NC(C)=O)[C@@H](C)O)C(=O)N[C@H]1CSSC[C@@H](C(=O)N[C@@H](Cc2c[nH]c3ccccc23)C(=O)N2CCC[C@H]2C(=O)N[C@H](CCCCNC(=O)CN2CCN(CC(=O)O)CCN(CC(=O)O)CCN(CC(=O)O)CC2)C(N)=O)NC(=O)C(C)(CC(=O)O)NC(=O)[C@H](Cc2cnc[nH]2)NC(=O)[C@H](Cc2c[nH]c3ccccc23)NC(=O)[C@H](CC(N)=O)NC(=O)[C@H](CC(N)=O)NC1=O` (stereo partly drawn) [compound 410, Ac-W-T-I-C(3)-N-N-W-H-(aMe-D)-C(3)-W-P-[D-Lys(DOTA)]-NH2] (Ac-WTICNNWH[ξαMeD]CWP[dK](DOTA)-NH2; disulfide 4-10): 1 to 10 nM; `CC(=O)N[C@@H](Cc1c[nH]c2ccc(F)cc12)C(=O)N[C@H](C(=O)N[C@H](C(=O)N[C@H]1CSSC[C@@H](C(=O)N[C@@H](Cc2c[nH]c3ncccc23)C(=O)N2C[C@H](F)C[C@H]2C(=O)N[C@H](CCCCNC(=O)CN2CCN(CC(=O)O)CCN(CC(=O)O)CCN(CC(=O)O)CC2)C(N)=O)NC(=O)[C@H](CC(=O)O)NC(=O)[C@H](Cc2cnc[nH]2)NC(=O)[C@H](Cc2ccc(F)cc2)NC(=O)[C@H](CC(N)=O)NC(=O)[C@H](CC(N)=O)NC1=O)C1CCCCC1)[C@@H](C)O` [compound 135, Ac-(5Fluoro-W)-T-(Chg)-C(3)-N-N-(4Fluoro-F)-H-D-C(3)-(7Aza-W)-(trans4Fluoro-P)-[D-Lys(DOTA)]-NH2] (Ac-[Trp(5-F)]T[Chg]CNN[Phe(4-F)]HDC[Trp(7-aza)][Pro(trans-4-F)][dK](DOTA)-NH2; disulfide 4-10): 1 to 10 nM.
For the molecule `CC(=O)N[C@@H](Cc1c[nH]c2ccc(F)cc12)C(=O)N[C@H](C(=O)N[C@@H](Cc1ccccc1C(F)(F)F)C(=O)N[C@H]1CSSC[C@@H](C(=O)N[C@@H](Cc2c[nH]c3ncccc23)C(=O)N2C[C@H](F)C[C@H]2C(=O)N[C@H](CCCCNC(=O)CN2CCN(CC(=O)O)CCN(CC(=O)O)CCN(CC(=O)O)CC2)C(N)=O)NC(=O)[C@H](CC(=O)O)NC(=O)[C@H](Cc2cnc[nH]2)NC(=O)[C@H](Cc2ccc(C(F)(F)F)cc2)NC(=O)[C@H](CC(N)=O)NC(=O)[C@H](CC(N)=O)NC1=O)[C@@H](C)O` [compound 152, Ac-(5Fluoro-W)-T-(2CF3-F)-C(3)-N-N-(4CF3-F)-H-D-C(3)-(7Aza-W)-(trans4Fluoro-P)-[D-Lys(DOTA)]-NH2] (Ac-[Trp(5-F)]T[Phe(2-CF3)]CNN[Phe(4-CF3)]HDC[Trp(7-aza)][Pro(trans-4-F)][dK](DOTA)-NH2; disulfide 4-10), the dissociation constant Kd is 1 to 10 nM.
For `CCCCCCCCCCCC(=O)NCCCC[C@@H]1NC(=O)[C@H](Cc2ccc3ccccc3c2)NC(=O)[C@H](CC(N)=O)NC(=O)[C@H](CC(N)=O)NC(=O)[C@@H](NC(=O)[C@@H](NC(=O)[C@@H](NC(=O)[C@H](Cc2c[nH]c3c(C)cccc23)NC(C)=O)[C@@H](C)O)[C@@H](C)CC)CSSC[C@@H](C(=O)N[C@@H](Cc2c[nH]c3ccccc23)C(=O)N2CCC[C@H]2C(=O)N[C@H](CCCCNC(=O)CN2CCN(CC(=O)O)CCN(CC(=O)O)CCN(CC(=O)O)CC2)C(N)=O)NC(=O)[C@H](CC(=O)O)NC1=O` [compound 369, Ac-(7Me-W)-T-I-C(3)-N-N-(2Nal)-H-D-C(3)-W-P-[D-Lys(DOTA)]-NH2] (Ac-[Trp(7-Me)]TICNN[2Nal]K(Lauroyl)DCWP[dK](DOTA)-NH2; disulfide 4-10), the Kd fell in the range of 1 to 10 nM.
Next, `CCCCCCCC(=O)NCC[C@@H]1NC(=O)[C@@H](NC(=O)[C@@H](NC(=O)[C@@H](NC(=O)[C@H](Cc2c[nH]c3ccccc23)NC(C)=O)[C@@H](C)O)[C@@H](C)CC)CSSC[C@@H](C(=O)N[C@@H](Cc2c[nH]c3ccccc23)C(=O)N2CCC[C@H]2C(=O)N[C@H](CCCCNC(=O)CN2CCN(CC(=O)O)CCN(CC(=O)O)CCN(CC(=O)O)CC2)C(N)=O)NC(=O)[C@H](CC(=O)O)NC(=O)[C@H](Cc2cnc[nH]2)NC(=O)[C@H](Cc2c[nH]c3ccccc23)NC(=O)[C@H](CC(N)=O)NC1=O` [compound 91, Ac-W-T-I-C(3)-(DAB-4-NHCOC7H15)-N-W-H-D-C(3)-W-P-[D-Lys(DOTA)]-NH2] (Ac-WTIC[Dab](Octanoyl)NWHDCWP[dK](DOTA)-NH2; disulfide 4-10): 10 to 100 nM.
